Measurements as given in patent US12410164B2, “Heterocyclic compounds and medical use thereof” (FONDAZIONE TELETHON, priority 2018, dated 2025).
Entries after “also recorded” stand apart in the source; their conditions may differ. Each block holds one compound with its values, some of them ahead of it.

How the values were obtained:
Type in all cases: cell-based
[1] = system: G542X-CFTR; test: HS-YFP assay in null CFBE41o− cells transfected with G542X-CFTR; conditions: G418 0.5 mg/ml alone, 24 hr
Experimental: To assess the function and pharmacological sensitivity of G542X-CFTR mutant, inventors used the null version of CFBE41o− cells, i.e. cells with negligible expression of endogenous CFTR and without HS-YFP. Such cells were transiently transfected with the plasmid coding for HS-YFP alone or in combination with: empty plasmid, plasmid coding for wild type CFTR, or plasmid coding for G542X-CFTR. For transfection, cells were seeded in 96-well microplates (30,000 cells/well) in 150 μl of antibiotic-free culture medium. After 24 hours, cells were transfected with the desired plasmids. For each well, 0.2 μg of total plasmid DNA and 0.5 μl of Lipofectamine 2000 (Invitrogen) were first pre-mixed in 50 μl of OPTIMEM (Invitrogen) to generate transfection complexes (60 minutes at room temperature), and then added to the cells. After 24 hour, the complexes were removed by replacement with fresh culture medium. The HS-YFP functional assay was performed after further 24 hours.
To assess the ability of compounds of present invention to improve the rescue of premature stop codon (class I) mutations, we carried out experiments on G542X-CFTR (FIG. 7). Null CFBE41o− cells, devoid of endogenous CFTR expression, were transiently transfected with empty, wild type CFTR or G542X-CFTR plasmids. All cells also received the HS-YFP plasmid to allow functional determination of CFTR-dependent anion transport. […] Where indicated, cells with G542X-CFTR were also treated with G418 (0.5 mg/ml) for 24 hr to induce readthrough of the stop codon mutation, with and without correctors (VX-809 and/or PP028, labeled as VX and PP). […] The activity resulting from wild type CFTR is also shown for comparison.

[2] = target: T1, F508del-CFTR (Homo sapiens, UniProt P13569, DEL508-508); test: HS-YFP kinetic fluorescence (iodide quenching rate) assay in CFBE41o− cells; parameters: expressed in transfected cells; host or cells: CFBE41o- cells with expression of F508del-CFTR and HS-YFP (generated as in Sondo et al. 2011)
Outline: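 CFBE41o- cells co-expressing F508del-CFTR and HS-YFP, treated 24 h with compound (0.1-0.2% DMSO), then stimulated with 20 μM forskolin plus 50 μM genistein. Fluorescence was read for 14 s during NaI injection. Background-subtracted, normalized traces were fitted exponentially to give maximum quenching rate (QR).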

[3] = target: T1, F508del-CFTR; test: Analysis of F508del-CFTR maturation by immunoblot in CFBE41o− cells; parameters: expressed in transfected cells; host or cells: CFBE41o- cells with expression of F508del-CFTR and HS-YFP (generated as in Sondo et al. 2011); conditions: compound 10 μM plus VX-809 1 μM, 24 hr
Experimental: CFBE41o− cells were grown to confluence on 60-mm diameter dishes and lysed in RIPA buffer containing a complete protease inhibitor (Roche; cat. n. 11697498001). Cell lysates were centrifuged at 12000 rpm at 4° C. for 10 min. Supernatant protein concentration was calculated using the BCA assay (Euroclone; cat. n. EMP014500) following the manufacturer's instructions. Equal amounts of total protein content (30 μg) were separated onto 10% Criterion TGX Precast gels (Bio-rad laboratories Inc.; cat. n. 4561033), transferred to nitrocellulose membrane with Trans-Blot Turbo system (Bio-rad Laboratories Inc.) and analyzed by Western blotting. Primary antibody for CFTR was anti-CFTR 596 (University of North Carolina at Chapel Hill, and Cystic Fibrosis Foundation Therapeutics, see Cui L, et al. J. Mol Biol 2007, 365, 981-994) at 1:5000 dilution. As secondary antibody, anti-mouse HRP-conjugated Ab 97023 (Abcam) was used at 1:10000 dilution. Results were subsequently visualized by chemiluminescence using the SuperSignal West Femto Substrate (Thermo Scientific) and the Molecular Imager ChemiDoc XRS System.
To analyze the mechanism of action of the compounds of the invention, two types of experiments were carried out. In the first type of experiment, the electrophoretic mobility of F508del-CFTR protein was determined by immunoblot assay. This is a frequently used method to assess the effect of correctors at the protein level. In control conditions, F508del-CFTR migrates predominantly as a single band of 150 kDa called “band B”. This is the immature form of the protein residing in the endoplasmic reticulum. When the protein folding and stability is improved by correctors, an additional band appears at higher molecular weight (170 kDa). This is the so-called band C, which represents the mature form of the CFTR protein that has reached the Golgi compartment and acquired full glycosylation.

T1 sequence (P13569 with tags, fused parts or gaps DEL508-508): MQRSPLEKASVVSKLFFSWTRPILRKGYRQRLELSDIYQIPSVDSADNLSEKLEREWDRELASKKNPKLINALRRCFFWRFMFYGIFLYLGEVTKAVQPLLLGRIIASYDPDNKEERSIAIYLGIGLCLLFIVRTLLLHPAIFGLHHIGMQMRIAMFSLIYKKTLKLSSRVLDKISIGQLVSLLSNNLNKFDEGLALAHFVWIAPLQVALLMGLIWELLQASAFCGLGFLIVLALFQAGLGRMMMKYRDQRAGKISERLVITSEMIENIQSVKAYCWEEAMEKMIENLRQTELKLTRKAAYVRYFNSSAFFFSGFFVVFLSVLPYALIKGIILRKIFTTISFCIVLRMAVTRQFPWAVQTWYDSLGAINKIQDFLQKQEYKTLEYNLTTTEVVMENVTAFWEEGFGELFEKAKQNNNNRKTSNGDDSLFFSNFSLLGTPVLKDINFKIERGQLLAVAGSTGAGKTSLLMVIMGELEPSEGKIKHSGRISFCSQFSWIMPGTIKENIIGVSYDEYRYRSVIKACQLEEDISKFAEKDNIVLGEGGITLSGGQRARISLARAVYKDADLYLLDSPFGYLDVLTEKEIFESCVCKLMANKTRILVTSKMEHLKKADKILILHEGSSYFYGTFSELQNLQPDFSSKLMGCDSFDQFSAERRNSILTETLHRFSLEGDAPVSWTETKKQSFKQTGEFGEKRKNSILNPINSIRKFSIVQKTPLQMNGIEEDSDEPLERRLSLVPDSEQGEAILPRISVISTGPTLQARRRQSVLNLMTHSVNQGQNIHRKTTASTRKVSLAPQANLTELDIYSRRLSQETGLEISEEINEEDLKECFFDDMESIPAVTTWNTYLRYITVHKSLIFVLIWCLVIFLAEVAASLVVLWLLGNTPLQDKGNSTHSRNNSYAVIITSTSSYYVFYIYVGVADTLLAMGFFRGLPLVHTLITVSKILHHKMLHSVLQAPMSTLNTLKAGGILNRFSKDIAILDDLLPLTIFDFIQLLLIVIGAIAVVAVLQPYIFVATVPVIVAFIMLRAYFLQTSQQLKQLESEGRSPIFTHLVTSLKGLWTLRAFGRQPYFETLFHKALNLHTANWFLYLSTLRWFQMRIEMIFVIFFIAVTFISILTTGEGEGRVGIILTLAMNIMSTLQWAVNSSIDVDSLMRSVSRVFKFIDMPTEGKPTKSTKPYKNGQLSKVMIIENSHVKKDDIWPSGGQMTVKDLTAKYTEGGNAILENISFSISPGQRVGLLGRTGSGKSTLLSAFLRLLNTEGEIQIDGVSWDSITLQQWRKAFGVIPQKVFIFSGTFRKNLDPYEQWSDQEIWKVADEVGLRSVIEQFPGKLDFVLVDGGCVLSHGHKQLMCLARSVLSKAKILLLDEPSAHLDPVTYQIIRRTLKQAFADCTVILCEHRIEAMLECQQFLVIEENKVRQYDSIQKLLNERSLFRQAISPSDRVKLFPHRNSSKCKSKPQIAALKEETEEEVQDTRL

Structure (SMILES): CN[C@@H]1[C@@H](O)[C@@H](O[C@@H]2[C@@H](O)[C@H](O[C@H]3O[C@H]([C@@H](C)O)[C@@H](O)[C@H](O)[C@H]3N)[C@@H](N)C[C@H]2N)OC[C@]1(C)O [G418, reference compound]
CFTR activity (QR) in G542X-CFTR cells [1]: modest but significant increase in CFTR activity

AI (%) additivity index ([2]; Table 1, compound at 10 μM plus VX-809, (QRTOT − QRVX)/QRVX, HS-YFP assay): 261%
structure-activity comparison of corrector potency/activity ([2]; relative to the analogue): Increased activity
Structure (SMILES): Cc1ccc(Cn2c(C(=O)OC(C)C)c(Br)c3c2-c2[nH]c(=O)c(S(=O)(=O)c4ccccc4)cc2CC3)cc1 [PP034, Propan-2-yl 7-(benzenesulfonyl)-3-bromo-1-[(4-methylphenyl)methyl]-8-oxo-4,5,8,9-tetrahydro-1H-pyrrolo[3,2-h]quinoline-2-carboxylate]
band C (mature form) expression versus VX-809 alone [3]: markedly enhances the abundance of the mature form of the protein; also recorded: marked increase in band C expression

AI additivity index ([2]; Table 3, compound at 10 μM plus VX-809, (QRTOT-QRVX)/QRVX): 152%
Structure (SMILES): CCOC(=O)c1c(Br)c2c(n1Cc1cccc(C)c1)-c1nc(NS(=O)(=O)c3ccccc3)ncc1CC2 [SVQ12, Ethyl 2-[(benzenesulfonyl)amino]-7-bromo-9-[(3-methylphenyl)methyl]-6,9-dihydro-5H-pyrrolo[3,2-h]quinazoline-8-carboxylate]
